Test results: PubChem BioAssay (NCI)
Where “and” joins values, the source holds several entries; their conditions need not be identical. Equal values may be shown once.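 Briefly, cells in 96-well plates were exposed to five compound concentrations for 48 h, and endpoints were estimated by linear interpolation. GI50: concentration for 50% inhibition of growth. The concentration for full growth arrest is given as TGI.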

Tests used:
Assay in all cases: NCI tumour cell line growth inhibition, 48 h
LOX IMVI melanoma = tested on: LOX IMVI melanoma
NCI-H226 lung = tested on: NCI-H226 lung
EKVX NSCLC = tested on: EKVX NSCLC
OVCAR-4 ovarian = tested on: OVCAR-4 ovarian
A498 renal = tested on: A498 renal
IGROV1 ovarian = tested on: IGROV1 ovarian
K-562 leukemia = tested on: K-562 leukemia
SNB-19 CNS = tested on: SNB-19 CNS
OVCAR-5 ovarian = tested on: OVCAR-5 ovarian
CCRF-CEM leukemia = tested on: CCRF-CEM leukemia

SMILES | TGI (LOX IMVI melanoma) | TGI (NCI-H226 lung) | TGI (EKVX NSCLC) | TGI (OVCAR-4 ovarian) | TGI (A498 renal) | TGI (IGROV1 ovarian) | TGI (K-562 leukemia) | TGI (SNB-19 CNS) | TGI (OVCAR-5 ovarian) | TGI (CCRF-CEM leukemia) | GI50 (LOX IMVI melanoma) | GI50 (A498 renal) | GI50 (SNB-19 CNS) | GI50 (OVCAR-5 ovarian) | GI50 (CCRF-CEM leukemia) | GI50 (NCI-H226 lung) | GI50 (EKVX NSCLC) | GI50 (OVCAR-4 ovarian) | GI50 (IGROV1 ovarian) | GI50 (K-562 leukemia)
Cn1c2c(c3ccccc3c1=O)C(=O)c1ccccc1-2 | > 100 µM | > 100 µM | > 100 µM | > 100 µM | > 100 µM | > 100 µM | > 100 µM | > 100 µM | > 100 µM | > 100 µM | – | – | – | – | – | – | – | – | – | –
COc1cc(C2c3cc4c(cc3[C@@H](Nc3ccc([N+](=O)[O-])cc3)C3COC(=O)[C@H]23)OCO4)cc(OC)c1O (some centres not stated) | 6.67 µM | 3.1 µM | 17.2 µM | 62.4 µM | 4.8 µM | 24.3 µM | 39.4 µM | 25.8 µM | 13.6 µM | 0.967 µM and 8.1 µM | 367 nM | 0.536 µM | 0.481 µM | 0.722 µM | 0.226 µM | – | – | – | – | –
Cc1ccc(N=Nc2c(O)ccc3n[nH]nc23)cc1 | > 100 µM | > 100 µM | 50 µM | > 100 µM | 42.2 µM | 50.6 µM | > 100 µM | > 100 µM | > 100 µM | 55.6 µM | 12700 nM | 1.99 µM | 20.7 µM | 43.5 µM | 4.13 µM | 15.3 µM | 11.6 µM | 9.3 µM | 12.2 µM | 9.06 µM
CC1=CC(C)(C)Nc2ccc(Cc3ccc4c(c3)C(C)=CC(C)(C)N4)cc21 | 82.2 µM | > 100 µM | > 100 µM | > 100 µM | 61.4 µM | > 100 µM | 51.8 µM | > 100 µM | > 100 µM | 59.6 µM | 15100 nM | 10.9 µM | 17.2 µM | 52.3 µM | 4.67 µM | 20.2 µM | 5.67 µM | 7.24 µM | 16.1 µM | 3.6 µM
C[C@H]1COCCN1c1nc(-c2cnc(N)cc2C(F)F)nc(N2CCOCC2)n1 | 4.44 µM | > 100 µM | 2 µM | – | 0.164 µM | 0.285 µM | > 100 µM | 13.8 µM | > 100 µM | > 50.3 µM | 152 nM | 0.0301 µM | 0.3 µM | 0.188 µM | 0.285 µM | 0.127 µM | 0.178 µM | 0.174 µM | 0.0364 µM | 0.692 µM
COc1cc2c3c(n(CCN4CCOCC4)c(=O)c2cc1OC)-c1ccccc1C3=O | > 100 µM | > 100 µM | > 100 µM | > 100 µM | > 100 µM | > 100 µM | > 100 µM | > 100 µM | > 100 µM | > 100 µM | 45500 nM | 85.7 µM | > 100 µM | > 100 µM | 19.7 µM | > 100 µM | > 100 µM | > 100 µM | 17.2 µM | 99.3 µM
c1cc(C2CCCCC2)ccc1-c1cnc2nonc2n1 | 1.74 µM | 4.22 µM | 3.65 µM | 2.28 µM | 2.32 µM | 3.15 µM | 18.8 µM | 3.55 µM | 4.04 µM | > 93.8 µM | 527 nM | 0.565 µM | 1.46 µM | 1.7 µM | 0.408 µM | 1.75 µM | 1.52 µM | 0.856 µM | 1.13 µM | 0.4 µM
COc1c(B(O)O)cccc1-c1nc2ccc3[nH]ncc3c2c2c1CCCC2 | 6.28 µM | 12.2 µM | 15.9 µM | 27.1 µM | 3.88 µM | 14.3 µM | > 100 µM | 28.1 µM | 25.2 µM | > 49.7 µM | 1380 nM | 0.491 µM | 2.68 µM | 2.45 µM | 0.544 µM | 1.51 µM | 2.65 µM | 4.23 µM | 2.25 µM | 3.4 µM
O=C(N/N=C/c1cc(Cl)ccc1O)c1ccccc1Nc1ccnc(C(F)(F)F)c1 | 12 µM | 7.71 µM | 4.86 µM | 35 µM | 7.9 µM | 13.3 µM | 14.5 µM | 24.3 µM | 25.6 µM | 1.51 µM | 263 nM | 0.585 µM | 0.89 µM | 1.67 µM | 0.127 µM | 0.769 µM | 0.25 µM | 0.299 µM | 0.361 µM | 0.686 µM
COc1c(-c2ccc3c(c2)OCO3)oc2cc(O)cc(O)c2c1=O | > 100 µM | > 100 µM | > 100 µM | 95 µM | 72.3 µM | > 100 µM | > 100 µM | > 100 µM | > 100 µM | > 100 µM | – | – | – | – | – | – | – | – | – | –
C[C@@H](CS[As](C)C)C(=O)N1CCC[C@H]1C(=O)O | 0.673 µM | 1.65 µM | 8.53 µM | – | 9.67 µM | 3.21 µM | 1.1 µM | 31.2 µM | 1.8 µM | 0.643 µM | 172 nM | 0.804 µM | 3.76 µM | 0.444 µM | 0.142 µM | 0.364 µM | 0.723 µM | 1.3 µM | 0.439 µM | 0.051 µM
O=C(NNc1ccccc1)c1ccc(Cl)c(Cl)c1 | > 100 µM | > 100 µM | 99.4 µM | > 100 µM | 59.7 µM | > 60.7 µM | > 100 µM | > 100 µM | > 100 µM | > 100 µM | – | – | – | – | – | – | – | – | – | –
CCC[n+]1cc2cc3c(cc2c2c1-c1cc4c(cc1C2)OCO4)OCO3 (tested in a mixture with another compound) | 14.3 µM | 7.96 µM | 19.2 µM | 5.9 µM | 25.7 µM | 7.81 µM | > 35 µM | 2.18 µM | 29 µM | 15 µM | 3220 nM | 11.2 µM | 0.269 µM | 8.85 µM | 2.38 µM | 0.719 µM | 2.18 µM | 0.853 µM | – | 0.581 µM
Cc1ccc(NC(=S)C#N)c(C)c1 | > 100 µM | > 100 µM | > 100 µM | > 100 µM | > 100 µM | > 100 µM | > 100 µM | > 100 µM | > 100 µM | > 100 µM | – | – | – | – | – | – | – | – | – | –
CC(=O)c1ccc2c3c1[C@H]1O[C@H]1c1cccc(c1-3)[C@@H]1O[C@H]21 | 1.2 µM | > 88.3 µM | 4.03 µM | 3.59 µM | 7.36 µM | 0.294 µM | > 35.2 µM | 13.1 µM | 3.68 µM | 4.2 µM | – | 2.74 µM | – | – | – | – | – | – | – | –
O=[N+]([O-])c1ccc(C2SCc3nc4ccccc4n32)cc1 (configuration not stated) | > 100 µM | > 100 µM | > 100 µM | > 100 µM | > 100 µM | 60.2 µM | > 100 µM | > 100 µM | > 100 µM | > 100 µM | – | – | – | – | – | – | – | – | – | –
CC(=O)[CH-]C(=O)c1ccccc1.CC(=O)[CH-]C(=O)c1ccccc1.CC[C@H](/C=C/C(C)[C@H]1CCC2[C@@H]3CC=C4C[C@@H]([O-])CC[C@]4(C)C3CC[C@@]21C)C(C)C.CC[C@H](/C=C/C(C)[C@H]1CCC2[C@@H]3CC=C4C[C@@H]([O-])CC[C@]4(C)C3CC[C@@]21C)C(C)C.Cl.[Ti+4] (some centres not stated) | > 25 µM | > 25 µM | > 25 µM | > 25 µM | > 25 µM | > 25 µM | > 25 µM | > 25 µM | > 25 µM | > 25 µM | > 25000 nM | > 25 µM | > 25 µM | > 25 µM | > 25 µM | > 25 µM | > 25 µM | > 25 µM | > 25 µM | > 25 µM
CCC[CH2][Sn]([CH2]CCC)([O]C(=O)c1cc(F)ccc1F)[O]C(=O)c1cc(F)ccc1F | 1.85 µM | 2.92 µM | 2.51 µM | 2.95 µM | 2.57 µM | 3.18 µM | 1.35 µM | 2.9 µM | 3.31 µM | 1.25 µM | 581 nM | 1.25 µM | 1.56 µM | 1.91 µM | 0.257 µM | 1.56 µM | 1.26 µM | 1.58 µM | 1.63 µM | 0.294 µM
C#CCOc1cccc(Nc2ncnc3cc(NC(=O)C=C)ccc23)c1 | 17.3 µM | > 100 µM | > 100 µM | > 100 µM | 46.6 µM | > 100 µM | > 100 µM | > 100 µM | > 100 µM | > 100 µM | 3730 nM | 4.25 µM | 23.8 µM | 14.1 µM | 4.08 µM | 29.7 µM | 14.8 µM | 29.6 µM | 10.7 µM | 2.79 µM
COc1ccc(/C=C\c2cc(OC)c(OC)c(OC)c2)cc1OC(=O)CC(N)C(=O)O (configuration not stated) | – | 0.107 µM | > 100 µM | > 100 µM | 0.00888 µM | > 100 µM | > 100 µM | – | > 100 µM | – | 0.0639 nM | – | 0.000909 µM | 55.8 µM | 0.000495 µM | – | – | 9.51 µM | 0.00355 µM | 0.000493 µM
